Viability data for 27 molecules are collected here from US11440906B2, “Biguanide derivatives and their rearrangement products for use in the treatment of cancer” (CENTRE NATIONAL DE LA RECHERCHE SCIENTIFIQUE, priority 2017, dated 2022).

Like-named read-outs stand apart in the source and are kept apart here.

This experiment deals with A375 Sensitive cells. The experiment can be described thus: Viability test, trypan blue exclusion, A375 Sensitive cells. It counts as cell-based, human. Particulars: Homo sapiens, A-375, viable cells as percentage of DMSO control. Summed up:
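A375 (B-Raf, CDKN2A, PTEN mutant) cells were exposed to compounds at 5.0 or 10 μM for 24 or 48 hr; CRO15 also at 0.5–50 μM for 48 hr or 5 μM for 2–48 hr; DMSO control. Viable cells were counted by trypan blue exclusion, as % of control. Three experiments in triplicate.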

The mark [1] stands for this setting: 24 h, read-out: Viab A375 5 μM/ 24 h.
[2] abbreviates: 48 h, read-out: Viab A375 5 μM/ 48 h.
Where [3] appears, read: 24 h, read-out: Viab A375 10 μM/ 24 h.
Where [4] appears, read: 48 h, read-out: Viab A375 10 μM/ 48 h.

As to `Nc1nc(Nc2ccccc2SSc2ccccc2Nc2nc(N)nc(-c3ccncc3)n2)nc(-c2ccncc2)n1` [MTF 329, N2,N2′-(disulfanediylbis(2,1-phenylene))bis(6-(pyridin-4-yl)-1,3,5-triazine-2,4-diamine)], the viability at 5 µM under setting [1] was 96.2% and the viability at 5 µM under setting [2] was 69.7%. Besides, the viability at 10 µM runs as follows: under setting [3], 74.2%; under setting [4], 22.5%.

Regarding `Cc1csc(NC(=N)NC(=N)c2cccc(Cl)c2)n1` [MTF 285, 3-chloro-N—(N-(4-methylthiazol-2-yl)carbamimidoyl)benzimidamide], the viability at 5 µM is 45% under setting [1] and 100% under setting [2]. Further, the viability at 10 µM is 77.8% under setting [3] and 78.7% under setting [4].

In the case of `COc1ccc2nc(NC(=N)NC(=N)c3cccc(Br)c3)sc2c1` [MTF 264, 3-bromo-N—(N-(6-methoxybenzo[d]thiazol-2-yl)carbamimidoyl)benzimidamide], the viability at 5 µM under setting [1] turned out to be 87%. The viability at 10 µM under setting [3] came to 89% and the viability at 10 µM under setting [4] came out at 99%.

`N=c1nc(C(Cl)(Cl)Cl)nc(Nc2ccc(Cl)cc2O)[nH]1` [MTF 375]: the viability at 5 µM was determined as 47.2% under setting [1] and 29.5% under setting [2]. Besides, the viability at 10 µM by setting is: under setting [3], 30.9%; under setting [4], 15.5%.

Consider `Cc1nc(NC(=N)NC(=N)c2ccccc2)sc1C` [MTF 303, N—(N-(4,5-dimethylthiazol-2-yl)carbamimidoyl)benzimidamide], for which the viability at 5 µM is, setting by setting: under setting [1], 85.6%; under setting [2], 44.2%. For the same molecule, the viability at 10 µM under setting [3] amounted to 66.1% and the viability at 10 µM under setting [4] is 39.1%.

Take `Nc1nc(Nc2ccccc2SSc2ccccc2Nc2nc(N)nc(-c3cscc3Br)n2)nc(-c2cscc2Br)n1` [MTF 397, N2,N2′-(disulfanediylbis(2,1-phenylene))bis(6-(4-bromothiophen-3-yl)-1,3,5-triazine-2,4-diamine)]: the viability at 5 µM runs as follows: under setting [1], 35.4%; under setting [2], 33.7%. Moreover, the viability at 10 µM by setting is: under setting [3], 13.4%; under setting [4], 7.3%.

As to `N=C(NC(=N)c1ccc(Cl)nc1)Nc1nc2ccccc2s1` [MTF 379, N—(N-(benzo[d]thiazol-2-yl)carbamimidoyl)-6-chloronicotinimidamide], the viability at 5 µM under setting [1] was 148% and the viability at 5 µM under setting [2] is 76.9%. Moreover, the viability at 10 µM by setting is: under setting [3], 95.7%; under setting [4], 86.2%.

Regarding `N=C(NC(=N)c1ccc2ccccc2c1)Nc1nc2ccccc2s1` [MTF 384, N—(N-(benzo[d]thiazol-2-yl)carbamimidoyl)-2-naphthimidamide], the viability at 5 µM is 76.1% under setting [1] and 119% under setting [2]. The viability at 10 µM reads like this: under setting [3], 93.3%; under setting [4], 72.2%.

For `CCOc1cccc(C(=N)NC(=N)Nc2nc3ccccc3s2)c1` [MTF 344, N—(N-(benzo[d]thiazol-2-yl)carbamimidoyl)-3-ethoxybenzimidamide], the viability at 5 µM by setting is: under setting [1], 84.3%; under setting [2], 26.1%. Besides, the viability at 10 µM by setting is: under setting [3], 38.7%; under setting [4], 26.1%.

For `Cc1nc(NC(=N)NC(=N)c2ccncc2)sc1C` [MTF 299, N—(N-(4,5-dimethylthiazol-2-yl)carbamimidoyl)isonicotinimidamide], the viability at 5 µM reads like this: under setting [1], 91.1%; under setting [2], 76.6%. Moreover, the viability at 10 µM stood at 72.8% under setting [3] and 46.2% under setting [4].

Take `Cc1nc(NC(=N)NC(=N)c2cccc(Cl)c2)sc1C` [MTF 301, 3-chloro-N—(N-(4,5-dimethylthiazol-2-yl)carbamimidoyl)benzimidamide]: the viability at 5 µM by setting is: under setting [1], 74%; under setting [2], 47%. Further, the viability at 10 µM runs as follows: under setting [3], 106%; under setting [4], 31.6%.

`N=C(NC(=N)c1ccccc1)Nc1nc(-c2ccccc2)cs1` [MTF 272, N—(N-(4-phenylthiazol-2-yl)carbamimidoyl)benzimidamide]: the viability at 5 µM under setting [1] was 100% and the viability at 5 µM under setting [2] was found to be 81%. Also, the viability at 10 µM was 88% under setting [3] and 54.6% under setting [4].

With `N=C(NC(=N)c1ccc(Cl)cc1)Nc1nc2ccccc2s1` [MTF 245, N—(N-(benzo[d]thiazol-2-yl)carbamimidoyl)-4-chlorobenzimidamide], the viability at 5 µM is, setting by setting: under setting [1], 95%; under setting [2], 100%. Also, the viability at 10 µM worked out at 83% under setting [3] and 79.6% under setting [4].

On to `Nc1nc(Nc2ccccc2SSc2ccccc2Nc2nc(N)nc(-c3cccs3)n2)nc(-c2cccs2)n1` [MTF 396, N2,N2′-(disulfanediylbis(2,1-phenylene))bis(6-(thiophen-2-yl)-1,3,5-triazine-2,4-diamine)], for which the viability at 5 µM reads like this: under setting [1], 19.2%; under setting [2], 12.1%. Further, the viability at 10 µM was 7.5% under setting [3] and 0% under setting [4].

With `N=C(NC(=N)c1ccccn1)Nc1nc2ccccc2s1` [MTF 251, N—(N-(benzo[d]thiazol-2-yl)carbamimidoyl)picolinimidamide], the viability at 5 µM runs as follows: under setting [1], 48.9%; under setting [2], 44.7%. For the same molecule, the viability at 10 µM was 45.1% under setting [3] and 19.5% under setting [4].

Turning to `N=C(NC(=N)c1ccccn1)Nc1nc(-c2ccccc2)cs1` [MTF 263, N—(N-(4-phenylthiazol-2-yl)carbamimidoyl)picolinimidamide], the viability at 5 µM under setting [1] is 89.5% and the viability at 5 µM under setting [2] turned out to be 91%. The viability at 10 µM turned out to be 100% under setting [3] and 66% under setting [4].

For `Cc1nc(NC(=N)NC(=N)c2cccnc2)sc1C` [MTF 298, N—(N-(4,5-dimethylthiazol-2-yl)carbamimidoyl)nicotinimidamide], the viability at 5 µM runs as follows: under setting [1], 97.2%; under setting [2], 73.6%. Moreover, the viability at 10 µM was 87.5% under setting [3] and 54.7% under setting [4].

As to `Nc1nc(Nc2ccccc2O)nc(-c2cccc(Cl)c2)n1` [MTF 332, 2-((4-amino-6-(3-chlorophenyl)-1,3,5-triazin-2-yl)amino)phenol], the viability at 5 µM runs as follows: under setting [1], 122%; under setting [2], 87.6%. For the same molecule, the viability at 10 µM runs as follows: under setting [3], 104%; under setting [4], 65.4%.

Regarding `N=c1nc(C(Cl)(Cl)Cl)nc(Nc2ccccc2O)[nH]1` [MTF 373, 2-((4-amino-6-(trichloromethyl)-1,3,5-triazin-2-yl)amino)phenol], the viability at 5 µM came out at 34.3% under setting [1] and 22.5% under setting [2]. Moreover, the viability at 10 µM reads like this: under setting [3], 38.6%; under setting [4], 22.8%.

In the case of `COc1ccc(C(=N)NC(=N)Nc2nc3ccccc3s2)cc1` [MTF 254, N—(N-(benzo[d]thiazol-2-yl)carbamimidoyl)-4-methoxybenzimidamide], the viability at 5 µM was 100% under setting [1] and 100% under setting [2]. Further, the viability at 10 µM under setting [3] was 100% and the viability at 10 µM under setting [4] is 100%.

Regarding `Cc1csc(NC(=N)NC(=N)c2ccc(Cl)cc2)n1` [MTF 286, 4-chloro-N—(N-(4-methylthiazol-2-yl)carbamimidoyl)benzimidamide], the viability at 5 µM turned out to be 48% under setting [1] and 155% under setting [2]. Moreover, the viability at 10 µM was found to be 65.3% under setting [3] and 120% under setting [4].

Regarding `Cc1nc(NC(=N)NC(=N)c2ccc(Cl)cc2)sc1C` [MTF 302, 4-chloro-N—(N-(4,5-dimethylthiazol-2-yl)carbamimidoyl)benzimidamide], the viability at 5 µM stood at 105% under setting [1] and 52.3% under setting [2]. Besides, the viability at 10 µM amounted to 94.8% under setting [3] and 39.3% under setting [4].

For the molecule `N=C(NC(=N)c1ncc(Cl)cc1Cl)Nc1nc2ccccc2s1` [MTF 389, N—(N-(benzo[d]thiazol-2-yl)carbamimidoyl)-3,5-dichloropicolinimidamide], the viability at 5 µM is, setting by setting: under setting [1], 74.6%; under setting [2], 85.6%. Further, the viability at 10 µM is, setting by setting: under setting [3], 75.8%; under setting [4], 76.4%.

`Nc1nc(Nc2ccccc2SSc2ccccc2Nc2nc(N)nc(-c3cccc([N+](=O)[O-])c3)n2)nc(-c2cccc([N+](=O)[O-])c2)n1` [MTF 445, N2,N2′-(disulfanediylbis(2,1-phenylene))bis(6-(3-nitrophenyl)-1,3,5-triazine-2,4-diamine)]: the viability at 5 µM runs as follows: under setting [1], 62.6%; under setting [2], 35.2%. The viability at 10 µM worked out at 72.4% under setting [3] and 16.3% under setting [4].

With `Nc1nc(Nc2ccccc2SSc2ccccc2Nc2nc(N)nc(-c3cccc(F)c3)n2)nc(-c2cccc(F)c2)n1` [MTF 320], the viability at 5 µM under setting [1] was 18.3% and the viability at 5 µM under setting [2] worked out at 11.5%. The viability at 10 µM under setting [3] came to 10.8% and the viability at 10 µM under setting [4] came to 8.5%.

Consider `N=C(NC(=N)c1cccc(F)c1)Nc1nc2ccccc2s1` [MTF 346, N—(N-(benzo[d]thiazol-2-yl)carbamimidoyl)-3-fluorobenzimidamide], for which the viability at 5 µM under setting [1] was 66.9% and the viability at 5 µM under setting [2] turned out to be 10.6%. For the same molecule, the viability at 10 µM stood at 43.2% under setting [3] and 12.9% under setting [4].

`N=C(NC(=N)c1ccncc1)Nc1nc(-c2ccccc2)cs1` [MTF 274, N—(N-(4-phenylthiazol-2-yl)carbamimidoyl)isonicotinimidamide]: the viability at 5 µM runs as follows: under setting [1], 83%; under setting [2], 93%. Besides, the viability at 10 µM is 84% under setting [3] and 89% under setting [4].
